Reference: patent US20220380385A1, “PYRIMIDINE FIVE-MEMBERED NITROGEN HETEROCYCLIC DERIVATIVE, PREPARATION METHOD THEREOF AND PHARMACEUTICAL USE THEREOF” (TUOJIE BIOTECH(SHANGHAI) CO., LTD., priority 2019, published 2022)

Columns and labels:
[1] = In vitro metabolic stability in rat liver microsomes; assay type: in vitro ADME; conditions: rat liver microsomes (male Wistar Han), NADPH, 37° C.; read-out: Intrinsic clearance rate
Procedure: The concentration of the compound in the reaction system was determined by LC/MS/MS, so as to calculate the intrinsic clearance rate of the test compound and to evaluate the in vitro metabolic stability in rat liver microsomes.
222.5 μL, 1.1236 mg/mL of a mixed solution of rat liver microsomes (male Wistar Han strain, purchased from Corning, catalog number 452511) and 25 μL, 10 mM of NADPH were added into the incubation plate. The mixture was mixed by vortexing for 10 seconds. The plate was incubated in a water bath at 37° C. for 8 minutes. 2.5 μL, 100 μM of the test compound or positive control was added to the incubation plate to start the reaction. The mixture was mixed by vortexing for 12 seconds, and incubated in a water bath at 37° C. The reaction was stopped by transferring 20 μL of the incubation system to a stop plate containing 100 μL of cold stop solution at 0.5, 5, 10, 15, 20 and 30 minutes. The mixture was mixed by vortexing for 2 minutes. The stop plate was centrifuged at 4000 rpm for 20 minutes, then left to stand at 4° C. for 30 minutes, and then centrifuged at 4000 rpm for 20 minutes. 40 μL of the supernatant of each compound was transferred to a 96-well injection plate, and 160 μL of pure water was added to dilute the samples.
The obtained samples were quantified by ion chromatogram, and the residual rate was calculated according to the peak area of the test compounds or positive control. The slope k was determined by linear regression of the natural logarithm of the residual rate to the incubation time by using Microsoft Excel.
The in vitro half-life (in vitro t1/2) was calculated from the slope: in vitro t1/2=−(0.693/k)
The following equation was used to convert in vitro half-life into intrinsic clearance rate (in vitro CLint, μL/min/mg protein):
in vitro CLint=(0.693/t1/2)×(incubation volume (L)/protein amount (mg))

[2] = target: T1, CYP1A2 (Homo sapiens, UniProt P05177); experiment: CYP inhibition in mixed human liver microsomes, CYP1A2 (phenacetin); assay type: in vitro ADME
T1 construct: Mixed human liver microsomes from 150 donors; tissue Corning 452117; host or cells: pooled human liver microsomes (150 donors)
T1 sequence (P05177 1-516): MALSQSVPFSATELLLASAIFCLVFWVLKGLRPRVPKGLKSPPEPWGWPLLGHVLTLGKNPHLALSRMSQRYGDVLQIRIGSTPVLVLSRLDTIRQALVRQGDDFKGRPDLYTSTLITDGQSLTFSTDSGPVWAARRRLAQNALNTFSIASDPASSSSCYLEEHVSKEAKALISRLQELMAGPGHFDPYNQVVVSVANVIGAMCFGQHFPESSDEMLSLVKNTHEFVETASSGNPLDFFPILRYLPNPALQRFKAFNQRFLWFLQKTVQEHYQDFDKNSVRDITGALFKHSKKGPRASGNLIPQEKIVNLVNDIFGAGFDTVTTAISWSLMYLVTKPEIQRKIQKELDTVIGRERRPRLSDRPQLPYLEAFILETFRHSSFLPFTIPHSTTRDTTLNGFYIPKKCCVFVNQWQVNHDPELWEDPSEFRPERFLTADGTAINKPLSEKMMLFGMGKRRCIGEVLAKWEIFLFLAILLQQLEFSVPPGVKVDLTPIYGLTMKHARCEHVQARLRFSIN
Procedure: (§1) Mixed human liver microsomes from 150 donors (purchased from Corning, catalog number 452117) were used to evaluate the representative substrate metabolic responses of the five main human CYP subtypes (CYP1A2, CYP2C9, CYP2C19, CYP2D6 and CYP3A4/5). The influence of different concentrations of test compounds on the metabolic responses of phenacetin (CYP1A2), diclofenac sodium (CYP2C9), S-mephenytoin (CYP2C19), bufurolol hydrochloride (2D6) and midazolam (CYP3A4/5) was determined by liquid chromatography tandem mass spectrometry (LC/MS/MS).
(§2) 200 μL of the reaction system (100 mmol/L phosphate buffer, pH 7.4, containing 0.3% DMSO, 0.6% acetonitrile and 0.1% methanol by volume respectively) with 30 µM phenacetin, 10 μM diclofenac sodium, 35 μM S-mephenytoin, 5 μM bufurolol hydrochloride, 3 μM midazolam, 1 mM NADPH, test compound (at a concentration of 0.1, 0.3, 1, 3, 10 and 30 μmol/L respectively) or positive compound or blank control and mixed human liver microsomes (0.2 mg/mL) was incubated at 37° C. for 5 minutes. […]
(§3) The peak area was calculated based on the chromatograms. The residual activity ratio (%) was calculated using the following equation: […]
(§4) The CYP median inhibitory concentration (IC50) was calculated by Excel XLfit 5.3.1.3.

[3] = target: T2, CYP2C9 (Homo sapiens, UniProt P11712); experiment: CYP inhibition in mixed human liver microsomes, CYP2C9 (diclofenac sodium); assay type: in vitro ADME
T2 construct: Mixed human liver microsomes from 150 donors; tissue Corning 452117; host or cells: pooled human liver microsomes (150 donors)
Procedure: as §1, §2, §3, §4

[4] = target: T3, CYP2C19 (Homo sapiens, UniProt P33261); experiment: CYP inhibition in mixed human liver microsomes, CYP2C19 (S-mephenytoin); assay type: in vitro ADME
T3 construct: Mixed human liver microsomes from 150 donors; tissue Corning 452117; host or cells: pooled human liver microsomes (150 donors)
Procedure: as §1, §2, §3, §4

[5] = target: T4, full-length SHP2 (aa 1-593) (Homo sapiens, UniProt Q06124); experiment: Activity on SHP2 phosphatase (DiFMUP fluorescence)
T4 sequence (Q06124 1-593): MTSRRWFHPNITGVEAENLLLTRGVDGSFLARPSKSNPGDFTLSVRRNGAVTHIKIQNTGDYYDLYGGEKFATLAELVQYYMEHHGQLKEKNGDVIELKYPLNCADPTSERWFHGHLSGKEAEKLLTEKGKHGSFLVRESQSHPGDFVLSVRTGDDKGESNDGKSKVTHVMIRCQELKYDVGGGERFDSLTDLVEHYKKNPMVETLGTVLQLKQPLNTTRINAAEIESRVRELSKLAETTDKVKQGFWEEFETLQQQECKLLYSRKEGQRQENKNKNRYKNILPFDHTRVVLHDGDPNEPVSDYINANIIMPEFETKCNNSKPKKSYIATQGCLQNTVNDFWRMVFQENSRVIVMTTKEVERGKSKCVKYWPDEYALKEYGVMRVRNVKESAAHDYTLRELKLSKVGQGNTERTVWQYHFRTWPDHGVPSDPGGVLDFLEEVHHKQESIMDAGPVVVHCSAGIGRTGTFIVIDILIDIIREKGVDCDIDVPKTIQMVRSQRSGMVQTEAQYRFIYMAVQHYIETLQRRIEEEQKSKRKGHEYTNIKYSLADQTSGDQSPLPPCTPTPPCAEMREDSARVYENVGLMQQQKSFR
Procedure: 0.2 nM recombinantly expressed full-length SHP2 (aa 1-593), 0.5 nM activated polypeptide IRS1 with dual phosphorylation sites (sequence: H2N-LN(pY)IDLDLY(dPEG8)LST(pY)ASINFQK-amide), and a series of concentrations of the test compound (final concentrations of 1 μM, 0.3 μM, 0.1 μM, 0.03 μM, 0.01 μM, 0.003 μM, 0.001 M, 0.0003 μM, 0.0001 μM and 0.00003 μM) were added into the phosphatase reaction solution (60 mM HEPES, PH 7.5 0.005% Brij-35, 75 mM NaCl, 75 mM KCl, 1 mM EDTA, 5 mM DTT), followed by shaking (350 rpm) at room temperature for 30 minutes. Then the reaction substrate DiFMUP was added at a final concentration of 30 μM, and the reaction solution was reacted at room temperature for 30 minutes. Then the phosphatase reaction was stopped by adding 5 μL of the reaction stop solution (60 mM HEPES, pH 7.5, 0.2% SDS). Ex358 nm/Em455 fluorescence value was read on the fluorescence plate reader MD SpectraMax.
The IC50 value of compounds was calculated by using the four-parameter logit method. […] Different concentrations correspond to different inhibition rates of phosphatase activity. A reverse curve was plotted and the IC50 of the inhibitors was calculated from the curve. The IC50 of compounds was calculated by using Primer premier 6.0.

T3 sequence (P33261 whole entry): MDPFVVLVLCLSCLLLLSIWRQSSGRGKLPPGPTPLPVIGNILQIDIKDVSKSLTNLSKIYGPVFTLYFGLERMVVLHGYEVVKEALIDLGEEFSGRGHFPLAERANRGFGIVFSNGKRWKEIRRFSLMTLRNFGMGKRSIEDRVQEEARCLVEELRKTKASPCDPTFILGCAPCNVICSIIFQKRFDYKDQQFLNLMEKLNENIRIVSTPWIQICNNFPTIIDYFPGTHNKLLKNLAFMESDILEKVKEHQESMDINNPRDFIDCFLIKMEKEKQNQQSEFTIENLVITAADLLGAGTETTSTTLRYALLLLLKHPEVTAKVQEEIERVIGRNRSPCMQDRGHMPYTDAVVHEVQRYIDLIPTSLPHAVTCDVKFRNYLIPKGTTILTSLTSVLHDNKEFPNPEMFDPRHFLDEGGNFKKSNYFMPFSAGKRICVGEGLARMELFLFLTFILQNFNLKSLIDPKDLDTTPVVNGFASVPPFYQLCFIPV
T2 sequence (P11712 whole entry): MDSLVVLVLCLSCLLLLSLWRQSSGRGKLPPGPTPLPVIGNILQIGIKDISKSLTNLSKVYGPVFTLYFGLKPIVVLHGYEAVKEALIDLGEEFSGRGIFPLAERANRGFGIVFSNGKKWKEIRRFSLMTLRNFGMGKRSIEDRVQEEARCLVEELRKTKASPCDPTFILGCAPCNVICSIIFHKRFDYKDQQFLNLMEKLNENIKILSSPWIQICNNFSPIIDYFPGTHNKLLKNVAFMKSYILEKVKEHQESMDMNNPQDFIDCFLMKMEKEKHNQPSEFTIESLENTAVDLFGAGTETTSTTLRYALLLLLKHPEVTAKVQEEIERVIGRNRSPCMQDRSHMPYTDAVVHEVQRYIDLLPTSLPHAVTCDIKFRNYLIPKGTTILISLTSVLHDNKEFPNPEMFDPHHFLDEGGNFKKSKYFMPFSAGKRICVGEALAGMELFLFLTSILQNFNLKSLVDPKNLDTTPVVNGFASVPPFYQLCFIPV

In the case of `[2H]C([2H])([2H])Nc1nccc(Sc2c(C)nc(N3CCC4(CC3)Cc3ncccc3[C@H]4N)n3ccnc23)c1Cl` [Example 3, (S)-1′-(8-((3-Chloro-2-((methyl-d3)amino)pyridin-4-yl)thio)-7-methylimidazo[1,2-c]pyrimidin-5-yl)-5,7-dihydrospiro[cyclopenta[b]pyridine-6,4′-piperidin]-5-amine], the microsomal CLint at 1 µM [1] is reported as < 3 µL/min/mg, the IC50 [2] is reported as 14.7 µM and the IC50 [3] is reported as > 20 µM. The IC50 [4] was > 20 µM and the IC50 [5] was 0.0045 µM.
